Data set [1] relates to Female mice. As to the kind of experiment: In-vivo induction of anesthesia (graded sedation level after IP injection). Here is the method: Prodrugs were formulated as aqueous isotonic solutions at pH 7.4 in sterile water before administration to animals. Female mice were obtained from Charles River Laboratories (Wilmington, Mass.). The volume of injection was set at […] and animals were dosed IP at 100 mg/kg, 125 mg/kg, 150 mg/kg and 200 mg/kg. The monitoring of distinguishable levels of sedation started immediately after an injection and was continued for a 2-h period post-injection. The sedation level was graded according to the behavioral and reflex activity of animals injected with progressively increasing doses of each compound. Animals were graded as alert and normal when there was no observable change in their behavior; alert with decreased motor activity when ataxia with some ability to walk was observed; and awake and recumbent when loss of righting reflex occurred. Animals reaching somnolence but retaining response to painful stimuli (toe or tail pinch) were graded as sedated with normal reflexes, whereas animals that lost response to painful stimuli were graded as sedated with decreased reflexes (anesthetic level of sedation). Death resulting from the overdose was also recorded as a last level.

Data set [2] is described as follows: pH stability in pH=4.1 sodium acetate buffer, analyzed by LC-MS. The settings on record: 100 mg in 10 mL pH=4.1 sodium acetate buffer, ambient temperature, 48 hours. The class given is physicochemical. Here is the method: A solution was prepared by dissolving 100 mg of N-(2-Piperidin-1-yl-ethyl)-succinamic acid 2,6-diisopropylphenyl ester hydrochloride in 10 mL of pH=4.1 sodium acetate buffer. The buffer was prepared by adding NaOH to a 20% aqueous acetic acid solution until the desired pH was reached. The solution was incubated at ambient temperature and analyzed by LC-MS after 48 hours.

The values that follow come from patent publication US7691904B2, “pH sensitive prodrugs of 2,6-diisopropylphenol” (Auspex Pharmaceuticals, Inc, priority 2003, dated 2010).

Each structure is given as a SMILES string.

On to `CC(C)c1cccc(C(C)C)c1OC(=O)CCC(=O)NCCN1CCCC1.Cl` [N-(2-pyrrolidin-1-yl-ethyl)-succinamic acid 2,6-diisopropylphenyl ester hydrochloride], for which the Duration of anesthesia in data set [1] (150 mg/kg) stood at 10 min; in data set [1] (200 mg/kg), 21 min. Further, the “End of anesthesia (time post injection, in parentheses)” value in data set [1] (150 mg/kg, time post injection) worked out at 14 min; in data set [1] (200 mg/kg, time post injection), 25 min. The Full anesthesia in data set [1] (150 mg/kg, time post injection) amounted to 4 min; in data set [1] (200 mg/kg, time post injection), 4 min. Besides, the Onset of sedation in data set [1] (150 mg/kg, time post injection) was found to be 2 min; in data set [1] (200 mg/kg, time post injection) it was 2 min.

`CC(C)c1cccc(C(C)C)c1OC(=O)CCC(=O)NCCN1CCCCC1.Cl` [N-(2-piperidin-1-yl-ethyl)-succinamic acid 2,6-diisopropylphenyl ester hydrochloride]: the Decomposition in solution entry in data set [2] is reported as “No trace of decomposition”. Besides, in data set [1] (100 mg/kg), the Duration of anesthesia came out at 11 min and the Full anesthesia entry is recorded as “not reached”. Further, in data set [1] (100 mg/kg, time post injection), the “End of effect (time post injection, in parentheses)” value stood at 13 min and the Onset of sedation was determined as 2 min. Besides, in data set [1] (125 mg/kg), the Duration of sedation came to 13 min and the Full anesthesia result is reported as “not reached”. In data set [1] (125 mg/kg, time post injection), the “End of sedation (time post injection, in parentheses)” value stood at 15 min and the Onset of sedation was 2 min. The same compound showed a Duration of anesthesia in data set [1] (200 mg/kg) of 12 min. In data set [1] (200 mg/kg, time post injection), the “End of anesthesia (time post injection, in parentheses)” value came out at 16 min; the Full anesthesia came out at 5 min; the Onset of sedation was determined as 2 min.
